Data from patent US20240165311A1, “STEM CELLS FOR USE IN ECMO TECHNOLOGY” (priority 2021, published 2024).

What was measured:
[1] = tested on: human PBMCs activated with anti-CD3/anti-CD28; assay: PBMC:MSC co-culture, cell composition after 24 hours of activation (FACS); conditions: Prednisolone 125 nM
Description: (§1) Freshly isolated human PBMCs, pooled from three donors, were activated with anti-CD3/anti-CD28 at 10 μg/ml and 5 μg/ml respectively in presence of MSCs ex vivo for 24 or 72 hours. Following activation, cells were analysed for effects on cellular composition after 24 hours and for effects on cellular composition and cell proliferation using CFSE after 72 hours. In addition, supernatants collected after 24 hours of activation were analysed for cytokine levels using Luminex.
(§2) Peripheral Blood Mononuclear Cells (PBMCs) were isolated from leucocyte concentrate from three different donors (acquired from Blodcentralen, Lunds Universitetssjukhus, Lund, Sweden) through gradient centrifugation at 400×g for 40 minutes using Ficoll. Red blood cells (RBCs) were lysed using BD Pharmlyse buffer 10× diluted in milliQ water for 3 minutes at room temperature (RT). Cells were washed and the isolated PBMCs were pooled. Cell concentration was determined using a Scepter cell counter (Millipore Merck, MA. USA). Cells were diluted to 1×10^7 cells/ml in PBS. Pooled PBMCs were split into 2 different tubes. Cells in tube 1 was stained with CFSE at 5 μM for 5 minutes (dark, RT). CFSE stained cells were washed with an equal volume of FBS to stop the reaction and washed again with PBS. Cells in tube two was left in PBS.
(§3) MSCs (donor 1, donor 2, donor 3, and AD-MSC control cells) were provided in 8 different tubes, two for each cell type (in different medias (M3 and M4). All cells (PBMCs and MSCs) were diluted in the two different cell culture media (M3 and M4) to a final concentration of 2*10^6 cells/ml. Media was supplemented with anti-CD28 at 5 μg/ml. Cells were added to anti-CD3 (1 μg/well, 100 μl/well) coated U bottom cell culture plates according to the layout below, 200 μl/well in different PBMC:MSC ratios (1:10, 1:5, 1:2.5, 1:0 and 0:1) with a total amount of cells at 4*10^5 cells/well.
(§4) Included in the assay were also controls (stimulated and unstimulated PBMCs) and two reference drugs, e.g. cyclosporine (CsA) and Prednisolone (Pred). When plating controls, cells were spun down and diluted in M3 or M4 at 4*10^6 cells/ml, with a total amount of cells at 4*10^5 cells/well. 100 μl PBMCs were added per well. CsA was added at a final concentration of 10 μg/ml and Prednisolone was added at a final concentration of 125 nM (700 μl/well). Medium was added to unstimulated control wells (700 μl/well). Cells were incubated for 24 or 72 hours at 37° C., 5% CO2. See also FIG. 19.
Following 24 hours of incubation, cells in FACS/Luminex plates were stained with antibodies detecting CD73, CD4, CD8, CD80, CD206, CD163 and PD-1 in staining buffer (PBS supplemented with 1% BSA). Briefly, cells were transferred to V bottom plates and centrifuged at 360×g for 2 min. Supernatant was transferred to a storage plate and put in −20° C. until analysis using Luminex. Cells were washed in PBS, centrifuged at 360×g for 2 min at 4° C. Supernatant was flicked off and antibodies against surface markers were added. Cells were incubated at +4° C. for 20 minutes (dark). After incubation, cells were washed 1× in PBS, centrifuged at 360×g for 2 min at 4° C. Cells were resuspended in PBS and acquired using the Attune Nxt flow cytometer. Compensation was performed using beads—AbC Total Compensation capture beads and negative beads. Since compensation was done using beads, FSC and SSC were changed before analysing samples and adjusted to cells. Lasers were not changed after compensation. 150 μl was analysed from each sample.

[2] = tested on: human PBMCs activated with anti-CD3/anti-CD28; assay: PBMC:MSC co-culture, proliferation and cell composition after 72 hours of activation (FACS after CFSE labeling); conditions: MSCs in co-culture, Prednisolone 125 nM
Description: as §1, §2, §3, §4
After 72 hours of incubation, CFSE stained cells were stained with CD4, CD8, CD80, CD206 and CD163 in staining buffer. Briefly, cells were transferred to V bottom plates, centrifuged at 360×g for 2 min. Cells were washed in PBS, centrifuged at 360×g for 2 min at 4° C. Supernatant was flicked off and surface markers were added. Cells were incubated at +4° C. for 20 minutes. After incubation, cells were washed 1× in PBS, centrifuged at 360×g for 2 min at 4° C. Cells were resuspended in PBS and acquired using the Attune Nxt flow cytometer. Compensation was performed using beads—AbC Total Compensation capture beads and negative beads for surface markers. For CFSE compensation, newly CFSE stained cells were used. Since compensation was done using both beads and cells, FSC and SSC were changed and adjusted to beads or cells. […]
Graphs were performed using Prism 8 for Mac OS X (GraphPad Software, San Diego, CA, USA). […] The inhibitory effect of MSCs on PBMC proliferation was calculated according to the two formulas below: […]

[3] = tested on: human PBMCs activated with anti-CD3/anti-CD28; assay: Cytokine analysis after 24 hours of activation (Luminex); format: cell-based; conditions: stimulated PBMCs, Prednisolone 125 nM
Description: Cells were washed and the isolated PBMCs were pooled. […] Pooled PBMCs were split into 2 different tubes. […] Cells in tube two was left in PBS. […] See also FIG. 19. Supernatant (24 hours incubation) was analysed for cytokines using the 12-[…]-12 Luminex kit. All reagents, standard and samples were prepared at room temperature and according to manufacturer's instruction. Briefly, 50 μl of standard or sample was added to wells. Microparticles were added to samples and standard and samples were incubated for 2 hours at room temperature on a horizontal orbital shaker (800 rpm). Plate was washed 3× in washing buffer using a magnetic plate. Biotin-antibody was added and incubated dark for 1 hour at room temperature on a horizontal orbital shaker (800 rpm). Plate was washed 3× in washing buffer using a magnetic plate. Streptavidin-PE was added to each well and incubated dark at room temperature on a horizontal orbital shaker (800 rpm) for 30 minutes. Plate was washed 3× in washing buffer using a magnetic plate. Microparticles were resuspended in 100 μl washing buffer, incubated for 2 minutes on a horizontal orbital shaker (800 rpm). Samples were analysed on a Bio-Rad Luminex analyzer.

## C[C@]12C=CC(=O)C=C1CC[C@@H]1[C@@H]2[C@@H](O)C[C@@]2(C)[C@H]1CC[C@]2(O)C(=O)CO [Prednisolone]
[1]; CsA 10 μg/ml
  M2 macrophage expression: no effect
  expression level of M1 macrophages: no effect
[1]
  macrophage cell composition: did not have an effect
[1]; reference drug treated PBMCs, CsA 10 μg/ml
  T cell activation: only slightly inhibits
[1]; reference drug treated PBMCs
  % T helper cells: higher levels
[2]; 72 hours of incubation, CsA 10 μg/ml
  T helper cells (% ): no effect
[2]; 72 hours, CsA 10 μg/ml
  M1 proliferation (CFSE): No effect
  M2 expression levels: no effect
  M2 proliferation (CFSE): No effect
[2]; 72 hours
  M1 expression levels: no effect
[3]; CsA 10 μg/ml
  IL-6 levels in supernatant: inhibits
[3]; CsA 10 μg/ml, 12-plex Luminex
  the other analysed cytokines, levels in supernatant: No inhibitory effect
[3]; MSCs at all ratios, CsA 10 μg/ml
  TNF-α levels in supernatant: inhibits
[3]; MSCs at all ratios
  IL12/IL23p40 levels in supernatant: inhibits
[3]; MSCs dose-dependent, CsA 10 μg/ml
  HGF levels in supernatant: inhibits
